{"source": "paper PMC6704710", "about": "“Preclinical evaluation of 3D185, a novel potent inhibitor of FGFR1/2/3 and CSF-1R, in FGFR-dependent and macrophage-dominant cancer models” (Journal of Experimental & Clinical Cancer Research : CR, 2019)", "test_in_all_cases": "Eurofins kinase panel", "assay_type_in_all_cases": "biochemical", "settings_in_all_cases": "read-out: Inhibition rate (%)", "key": {"[1]": {"biological_target": "T1, PrKX(h) (Homo sapiens, UniProt P51817)", "T1 construct": "purchased Eurofins (KinaseProfiler)", "T1 sequence (P51817 1-358)": "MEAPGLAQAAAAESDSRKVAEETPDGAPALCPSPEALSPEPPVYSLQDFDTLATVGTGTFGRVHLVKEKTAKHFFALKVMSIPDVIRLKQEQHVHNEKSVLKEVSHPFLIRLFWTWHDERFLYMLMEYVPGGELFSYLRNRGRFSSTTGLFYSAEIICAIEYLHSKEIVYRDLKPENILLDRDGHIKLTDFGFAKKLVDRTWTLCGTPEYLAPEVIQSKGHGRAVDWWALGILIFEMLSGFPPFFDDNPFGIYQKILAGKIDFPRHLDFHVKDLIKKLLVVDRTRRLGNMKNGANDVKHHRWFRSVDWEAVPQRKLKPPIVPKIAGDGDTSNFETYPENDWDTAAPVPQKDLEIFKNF"}, "[2]": {"biological_target": "T2, A-Raf(h) (Homo sapiens, UniProt P10398)", "T2 construct": "purchased Eurofins (KinaseProfiler)", "T2 sequence (P10398 1-606)": "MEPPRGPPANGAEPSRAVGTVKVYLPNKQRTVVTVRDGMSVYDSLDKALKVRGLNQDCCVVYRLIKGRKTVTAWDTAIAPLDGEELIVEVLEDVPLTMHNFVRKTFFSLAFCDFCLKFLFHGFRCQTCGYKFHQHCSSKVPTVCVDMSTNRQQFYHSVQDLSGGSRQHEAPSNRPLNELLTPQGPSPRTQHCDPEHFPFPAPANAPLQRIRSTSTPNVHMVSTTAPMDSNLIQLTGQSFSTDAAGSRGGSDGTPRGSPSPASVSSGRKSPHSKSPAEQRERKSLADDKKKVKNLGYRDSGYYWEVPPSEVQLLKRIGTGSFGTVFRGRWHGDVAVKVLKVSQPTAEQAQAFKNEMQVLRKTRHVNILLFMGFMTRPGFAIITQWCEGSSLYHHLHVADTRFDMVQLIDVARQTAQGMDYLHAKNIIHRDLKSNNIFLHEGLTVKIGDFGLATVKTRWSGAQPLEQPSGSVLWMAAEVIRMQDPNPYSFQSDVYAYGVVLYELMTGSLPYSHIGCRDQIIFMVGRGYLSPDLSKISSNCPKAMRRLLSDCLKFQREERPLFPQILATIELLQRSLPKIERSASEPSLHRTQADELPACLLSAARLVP"}, "[3]": {"biological_target": "T3, IGF-1R(h), activated (Homo sapiens, UniProt P08069)", "T3 construct": "purchased Eurofins (KinaseProfiler)", "T3 sequence (P08069 31-1367)": "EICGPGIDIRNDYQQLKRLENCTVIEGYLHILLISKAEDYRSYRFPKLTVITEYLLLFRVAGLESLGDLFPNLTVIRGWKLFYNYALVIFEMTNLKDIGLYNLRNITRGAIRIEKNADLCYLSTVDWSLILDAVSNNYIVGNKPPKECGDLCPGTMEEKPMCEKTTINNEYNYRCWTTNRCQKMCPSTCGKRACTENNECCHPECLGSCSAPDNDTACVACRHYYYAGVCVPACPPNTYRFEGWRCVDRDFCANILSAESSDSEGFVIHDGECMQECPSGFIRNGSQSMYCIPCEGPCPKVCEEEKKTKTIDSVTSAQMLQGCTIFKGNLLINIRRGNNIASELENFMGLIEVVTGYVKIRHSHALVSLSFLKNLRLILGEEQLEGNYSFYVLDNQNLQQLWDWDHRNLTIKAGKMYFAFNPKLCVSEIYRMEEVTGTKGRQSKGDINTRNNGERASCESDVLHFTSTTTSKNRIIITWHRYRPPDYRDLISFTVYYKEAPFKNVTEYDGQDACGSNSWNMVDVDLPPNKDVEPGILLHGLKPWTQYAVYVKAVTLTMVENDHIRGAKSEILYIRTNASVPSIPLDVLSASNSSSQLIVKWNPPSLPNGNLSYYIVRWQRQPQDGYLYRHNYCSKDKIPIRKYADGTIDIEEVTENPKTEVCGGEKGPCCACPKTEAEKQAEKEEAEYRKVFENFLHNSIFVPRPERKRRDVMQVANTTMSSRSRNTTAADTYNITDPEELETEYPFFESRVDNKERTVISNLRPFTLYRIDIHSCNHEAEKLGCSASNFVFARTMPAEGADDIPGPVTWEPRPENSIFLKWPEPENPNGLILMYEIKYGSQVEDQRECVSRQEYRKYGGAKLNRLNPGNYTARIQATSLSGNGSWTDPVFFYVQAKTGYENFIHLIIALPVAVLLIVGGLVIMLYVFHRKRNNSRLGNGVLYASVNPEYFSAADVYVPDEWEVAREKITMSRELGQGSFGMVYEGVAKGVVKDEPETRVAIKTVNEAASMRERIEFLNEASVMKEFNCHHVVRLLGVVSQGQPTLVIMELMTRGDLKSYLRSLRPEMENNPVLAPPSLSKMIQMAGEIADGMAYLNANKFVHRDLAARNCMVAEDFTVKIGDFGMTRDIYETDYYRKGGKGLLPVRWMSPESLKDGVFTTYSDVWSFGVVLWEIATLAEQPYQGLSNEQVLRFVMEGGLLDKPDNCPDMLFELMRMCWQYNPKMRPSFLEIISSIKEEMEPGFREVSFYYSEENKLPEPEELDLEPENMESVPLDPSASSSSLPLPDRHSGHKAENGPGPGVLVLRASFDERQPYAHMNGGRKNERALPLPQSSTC"}, "[4]": {"biological_target": "T4, EphB1(h) (Homo sapiens, UniProt P54762)", "T4 construct": "purchased Eurofins (KinaseProfiler)", "T4 sequence (P54762 18-984)": "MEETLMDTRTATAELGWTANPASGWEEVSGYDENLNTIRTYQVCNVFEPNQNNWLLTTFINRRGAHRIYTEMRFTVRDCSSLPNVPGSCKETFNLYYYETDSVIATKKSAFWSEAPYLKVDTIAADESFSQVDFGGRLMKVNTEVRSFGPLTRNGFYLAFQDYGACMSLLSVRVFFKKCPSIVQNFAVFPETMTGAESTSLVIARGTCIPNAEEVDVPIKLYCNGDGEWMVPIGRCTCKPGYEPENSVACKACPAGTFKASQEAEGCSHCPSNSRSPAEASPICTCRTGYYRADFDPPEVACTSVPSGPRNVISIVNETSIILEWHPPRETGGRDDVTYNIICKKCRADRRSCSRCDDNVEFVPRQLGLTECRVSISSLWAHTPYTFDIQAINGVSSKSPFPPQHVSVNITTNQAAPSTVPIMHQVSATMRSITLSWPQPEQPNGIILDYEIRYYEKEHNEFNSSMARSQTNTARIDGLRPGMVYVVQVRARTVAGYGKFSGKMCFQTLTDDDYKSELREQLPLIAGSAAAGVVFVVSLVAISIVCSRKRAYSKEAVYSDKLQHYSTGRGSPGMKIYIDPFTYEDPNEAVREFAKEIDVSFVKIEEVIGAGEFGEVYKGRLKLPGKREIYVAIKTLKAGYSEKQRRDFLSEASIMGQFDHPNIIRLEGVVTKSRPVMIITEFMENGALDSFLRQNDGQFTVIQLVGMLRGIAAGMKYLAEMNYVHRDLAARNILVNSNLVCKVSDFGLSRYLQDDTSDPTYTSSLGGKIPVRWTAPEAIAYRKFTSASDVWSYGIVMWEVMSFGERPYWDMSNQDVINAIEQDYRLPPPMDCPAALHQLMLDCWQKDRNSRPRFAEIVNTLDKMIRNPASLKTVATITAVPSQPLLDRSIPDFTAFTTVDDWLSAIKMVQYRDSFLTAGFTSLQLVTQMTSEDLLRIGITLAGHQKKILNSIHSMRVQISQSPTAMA"}, "[5]": {"biological_target": "T5, PI3KC2α(h) (Homo sapiens, UniProt O00443)", "T5 construct": "purchased Eurofins (KinaseProfiler)"}, "[6]": {"biological_target": "T6, PIP5K1γ(h) (Homo sapiens, UniProt O60331)", "T6 construct": "purchased Eurofins (KinaseProfiler)"}, "[7]": {"biological_target": "T7, EGFR(T790M)(h) (Homo sapiens, UniProt P00533, T790M)", "T7 construct": "purchased Eurofins (KinaseProfiler)"}, "[8]": {"biological_target": "T8, ALK6(h) (Homo sapiens, UniProt O00238)", "T8 construct": "purchased Eurofins (KinaseProfiler)", "T8 sequence (O00238 14-502)": "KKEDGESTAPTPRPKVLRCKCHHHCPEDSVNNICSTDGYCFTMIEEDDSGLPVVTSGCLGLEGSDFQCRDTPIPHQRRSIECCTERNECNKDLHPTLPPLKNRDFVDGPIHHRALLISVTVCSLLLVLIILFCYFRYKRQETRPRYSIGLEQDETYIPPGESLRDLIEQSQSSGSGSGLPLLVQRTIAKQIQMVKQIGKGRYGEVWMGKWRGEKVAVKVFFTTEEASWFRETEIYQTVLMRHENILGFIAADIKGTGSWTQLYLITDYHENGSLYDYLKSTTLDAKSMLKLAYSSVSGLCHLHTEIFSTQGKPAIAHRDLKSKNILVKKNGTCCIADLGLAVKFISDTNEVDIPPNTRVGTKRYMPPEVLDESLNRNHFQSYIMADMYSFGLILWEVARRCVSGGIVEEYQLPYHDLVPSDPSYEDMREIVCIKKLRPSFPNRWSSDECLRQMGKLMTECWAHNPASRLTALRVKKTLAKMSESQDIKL"}, "[9]": {"biological_target": "T9, MRCKα(h) (Homo sapiens, UniProt Q5VT25)", "T9 construct": "purchased Eurofins (KinaseProfiler)", "T9 sequence (Q5VT25 whole entry)": "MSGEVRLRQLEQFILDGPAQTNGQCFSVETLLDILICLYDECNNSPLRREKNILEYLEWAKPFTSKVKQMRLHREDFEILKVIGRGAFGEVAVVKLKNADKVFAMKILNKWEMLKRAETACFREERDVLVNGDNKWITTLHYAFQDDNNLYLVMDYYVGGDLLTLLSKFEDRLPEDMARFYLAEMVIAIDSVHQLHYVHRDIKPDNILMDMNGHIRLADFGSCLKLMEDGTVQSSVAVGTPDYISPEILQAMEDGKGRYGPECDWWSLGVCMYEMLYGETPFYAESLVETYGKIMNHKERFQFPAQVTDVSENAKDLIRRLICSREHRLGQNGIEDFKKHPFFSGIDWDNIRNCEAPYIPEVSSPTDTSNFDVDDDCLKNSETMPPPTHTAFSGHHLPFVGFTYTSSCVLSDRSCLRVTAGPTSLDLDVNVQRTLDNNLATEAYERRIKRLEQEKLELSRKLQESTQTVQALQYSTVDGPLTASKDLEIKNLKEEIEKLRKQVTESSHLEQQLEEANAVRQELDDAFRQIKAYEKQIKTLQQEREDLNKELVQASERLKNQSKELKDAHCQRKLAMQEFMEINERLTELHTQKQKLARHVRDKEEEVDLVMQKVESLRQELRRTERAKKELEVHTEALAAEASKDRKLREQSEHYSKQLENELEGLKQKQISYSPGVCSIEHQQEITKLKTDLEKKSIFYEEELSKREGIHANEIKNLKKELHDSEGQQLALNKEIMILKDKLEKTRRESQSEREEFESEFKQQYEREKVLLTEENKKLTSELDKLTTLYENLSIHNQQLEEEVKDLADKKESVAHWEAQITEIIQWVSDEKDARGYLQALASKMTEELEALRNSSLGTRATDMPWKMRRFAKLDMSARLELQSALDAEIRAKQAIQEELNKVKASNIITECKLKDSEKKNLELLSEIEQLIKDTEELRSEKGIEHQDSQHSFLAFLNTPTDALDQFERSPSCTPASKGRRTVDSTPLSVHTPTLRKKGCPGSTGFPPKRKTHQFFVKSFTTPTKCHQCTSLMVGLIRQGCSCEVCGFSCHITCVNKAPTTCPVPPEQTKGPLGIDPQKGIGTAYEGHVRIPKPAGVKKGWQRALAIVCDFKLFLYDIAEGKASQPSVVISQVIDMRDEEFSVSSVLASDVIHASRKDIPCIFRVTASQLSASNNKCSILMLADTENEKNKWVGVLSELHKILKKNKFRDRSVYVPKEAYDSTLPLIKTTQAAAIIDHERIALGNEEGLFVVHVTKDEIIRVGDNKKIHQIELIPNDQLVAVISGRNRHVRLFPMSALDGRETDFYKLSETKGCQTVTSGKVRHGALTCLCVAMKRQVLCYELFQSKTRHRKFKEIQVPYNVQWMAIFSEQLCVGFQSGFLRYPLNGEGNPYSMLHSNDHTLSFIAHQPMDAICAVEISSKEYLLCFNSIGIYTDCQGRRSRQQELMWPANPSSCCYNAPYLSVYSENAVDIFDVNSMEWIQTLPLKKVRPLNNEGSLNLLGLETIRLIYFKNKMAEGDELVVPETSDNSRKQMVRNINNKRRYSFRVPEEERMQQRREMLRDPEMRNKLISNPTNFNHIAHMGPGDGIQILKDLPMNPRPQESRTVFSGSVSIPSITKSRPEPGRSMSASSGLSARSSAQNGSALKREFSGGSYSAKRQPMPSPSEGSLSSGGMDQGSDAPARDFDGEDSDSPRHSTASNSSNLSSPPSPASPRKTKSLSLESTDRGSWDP"}, "[10]": {"biological_target": "T10, CSK(h) (Homo sapiens, UniProt P41240)", "T10 construct": "purchased Eurofins (KinaseProfiler)", "T10 sequence (P41240 whole entry)": "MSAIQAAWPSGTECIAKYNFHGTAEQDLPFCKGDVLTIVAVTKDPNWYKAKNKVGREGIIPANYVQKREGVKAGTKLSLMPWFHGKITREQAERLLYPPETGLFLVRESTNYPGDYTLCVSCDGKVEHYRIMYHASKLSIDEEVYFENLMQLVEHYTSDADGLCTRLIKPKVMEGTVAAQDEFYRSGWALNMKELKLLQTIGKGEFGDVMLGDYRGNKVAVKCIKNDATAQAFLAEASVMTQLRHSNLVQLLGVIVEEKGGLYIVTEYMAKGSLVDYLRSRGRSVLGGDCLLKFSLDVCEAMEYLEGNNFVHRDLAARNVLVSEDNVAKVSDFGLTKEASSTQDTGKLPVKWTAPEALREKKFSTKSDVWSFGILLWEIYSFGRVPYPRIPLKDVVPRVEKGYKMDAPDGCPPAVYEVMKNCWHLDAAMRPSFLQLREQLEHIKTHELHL"}}}
{"smiles": "COc1cc(OC)c(Cl)c(-c2ccc3c(NC(=O)c4ccc(N5CCNC(C)(C)C5)cc4)n[nH]c3n2)c1Cl", "note": "[3D185]", "values": [{"measurement": "inhibition at 0.01 µM", "setting": "[1]; 10 nM", "value": 8, "unit": "%"}, {"measurement": "inhibition at 0.1 µM", "setting": "[1]; 100 nM", "value": 11, "unit": "%"}, {"measurement": "inhibition at 1 µM", "setting": "[1]; 1000 nM", "value": 5, "unit": "%"}, {"measurement": "inhibition at 0.01 µM", "setting": "[2]; 10 nM", "value": -7, "unit": "%"}, {"measurement": "inhibition at 0.1 µM", "setting": "[2]; 100 nM", "value": -7, "unit": "%"}, {"measurement": "inhibition at 1 µM", "setting": "[2]; 1000 nM", "value": -4, "unit": "%"}, {"measurement": "inhibition at 0.01 µM", "setting": "[3]; 10 nM", "value": -12, "unit": "%"}, {"measurement": "inhibition at 0.1 µM", "setting": "[3]; 100 nM", "value": 6, "unit": "%"}, {"measurement": "inhibition at 1 µM", "setting": "[3]; 1000 nM", "value": 49, "unit": "%"}, {"measurement": "inhibition at 0.01 µM", "setting": "[4]; 10 nM", "value": -9, "unit": "%"}, {"measurement": "inhibition at 0.1 µM", "setting": "[4]; 100 nM", "value": 1, "unit": "%"}, {"measurement": "inhibition at 1 µM", "setting": "[4]; 1000 nM", "value": 36, "unit": "%"}, {"measurement": "inhibition at 0.01 µM", "setting": "[5]; 10 nM", "value": -5, "unit": "%"}, {"measurement": "inhibition at 0.1 µM", "setting": "[5]; 100 nM", "value": 1, "unit": "%"}, {"measurement": "inhibition at 1 µM", "setting": "[5]; 1000 nM", "value": 1, "unit": "%"}, {"measurement": "inhibition at 0.01 µM", "setting": "[6]; 10 nM", "value": 6, "unit": "%"}, {"measurement": "inhibition at 0.1 µM", "setting": "[6]; 100 nM", "value": 6, "unit": "%"}, {"measurement": "inhibition at 1 µM", "setting": "[6]; 1000 nM", "value": 10, "unit": "%"}, {"measurement": "inhibition at 0.01 µM", "setting": "[7]; 10 nM", "value": -15, "unit": "%"}, {"measurement": "inhibition at 0.1 µM", "setting": "[7]; 100 nM", "value": -8, "unit": "%"}, {"measurement": "inhibition at 1 µM", "setting": "[7]; 1000 nM", "value": 29, "unit": "%"}, {"measurement": "inhibition at 0.01 µM", "setting": "[8]; 10 nM", "value": 3, "unit": "%"}, {"measurement": "inhibition at 0.1 µM", "setting": "[8]; 100 nM", "value": -11, "unit": "%"}, {"measurement": "inhibition at 1 µM", "setting": "[8]; 1000 nM", "value": -5, "unit": "%"}, {"measurement": "inhibition at 0.01 µM", "setting": "[9]; 10 nM", "value": 12, "unit": "%"}, {"measurement": "inhibition at 0.1 µM", "setting": "[9]; 100 nM", "value": 16, "unit": "%"}, {"measurement": "inhibition at 1 µM", "setting": "[9]; 1000 nM", "value": 14, "unit": "%"}, {"measurement": "inhibition at 0.01 µM", "setting": "[10]; 10 nM", "value": 8, "unit": "%"}, {"measurement": "inhibition at 0.1 µM", "setting": "[10]; 100 nM", "value": 23, "unit": "%"}, {"measurement": "inhibition at 1 µM", "setting": "[10]; 1000 nM", "value": 63, "unit": "%"}]}
